Data: patent publication US7649016B2, “Antitumor medicine” (Nihon Starch Co., Ltd., priority 2003, dated 2010)

Assays:
[1] = tested on: integrin (THP-1 cell adhesion); assay: Number of adhered cells after phorbol ester (PMA) stimulation, function of integrin; format: cell-based, human; conditions: THP-1, 12.3 mM, one hour
Description: A 1,5-D-anhydrofructose solution (prepared by dissolving 1,5-D-anhydrofructose in DMSO) was added to the THP-1 cell culture medium, and the resulting medium was then stimulated by phorbol ester (PMA; phorbol myristate acetate). After the medium was cultured at 37° C. and a CO2 concentration of 5% for one hour, adhered cells were stained with a Giemsa staining method.
It is known that when leukemia cell lines are stimulated by phorbol ester (PMA), activation of adhesion molecule integrin is observed, and as a result, production of active oxygen, enhancement of cell adhesion and cell infiltration are induced as cell phenomena. Thus, THP-1 cell lines were cultured in the presence of 1,5-D-anhydrofructose, and the function of integrin was evaluated by use of the number of adherent cells after stimulation of the lines by phorbol ester as an index.

[2] = tested on: B16 melanoma cells in C57 BL/6 mice; assay: Cancerous peritonitis model, survival of mice with B16 melanoma cells in the abdominal cavity; format: in vivo, mouse
Description: B16 melanoma cells (5×10^6 cells) were disseminated in the abdominal cavities of C57 BL/6 mice, PBS (phosphate buffer) and an ascopyrone P solution were then administered (dosage: 200 mg/kg) into the abdominal cavities every day from the 15th day, and the survival rates were examined (cancerous peritonitis model). It was confirmed that, in this experimental system, when the B16 melanoma cells were disseminated in the abdominal cavities of the mice in advance, the mice died from the 14th day or later when nothing or PBS was applied. The results of examining the life extending effect of ascopyrone P on terminal cancer models by use of the present experimental system are shown in FIG. 8. […] This indicates the antitumor effect in vivo of ascopyrone P.
As in Example 1, B16 melanoma cells (5×10^6 cells) were disseminated in the abdominal cavities of C57 BL/6 mice, and PBS and 1,5-D-anhydrofructose were administered (dosage: 200 mg/kg) into the abdominal cavities every day from the 2nd day. The average survival days after the tumor cells were disseminated were 19 days for those given 1,5-D-anhydrofructose and 14 days for those given PBS as controls.

[3] = tested on: B16 melanoma cells; assay: Cell growth inhibition, number of living cells by crystal violet staining; format: cell-based, mouse; conditions: 0.70 mM final concentration, one week culture
Description: After B16 melanoma cells having multiplied on a 6-well plate were fixed by 2% glutaraldehyde, they were stained with 4% crystal violet, and stainable cells were determined to be living cells.
5×10^3 cells/ml of B16 melanoma cells (C57 BL/6 mouse melanoma cells) were disseminated into a 6-well plate. After the cells were attached to the bottom face (24 hours), an ascopyrone P solution (using DMSO as a solvent) was added in equal amounts to achieve a final concentration of 0 to 0.70 mM in the culture solutions. After the cells were cultured at 37° C. and a CO2 concentration of 5% for one week, the number of living cells was counted.

[4] = tested on: THP-1 (promyelocytic leukemia cells); assay: Percentage of dead cells by PI staining/FACS; format: cell-based, human
Description: (§1) Adhesion cancer cell lines C57 BL/6 mouse melanoma cell lines (B16 melanoma), human lung adenocarcinoma cell lines (A549), human keratinocyte derived tumor-like cell lines (HaCaT) and human cervical cancer cell lines (Hela) were cultured at 37° C. and a CO2 concentration of 5% in DMEM media having 10% FCS (fetal calf serum) and 2% penicillin/streptomycin added thereto. Floating tumor cells THP-1 (promyelocytic leukemia cell lines) were cultured at 37° C. and a CO2 concentration of 5% in an RPMI 1640 medium containing 10% FCS and 2% penicillin/streptomycin.
(§2) The cell culture media were stimulated by ascopyrone P solutions (prepared by dissolving ascopyrone P in dimethyl sulfoxide (DMSO)) of various concentrations and cultured for a predetermined time. Thereafter, cells were collected in a floating state by use of trypsin. Then, the cells were fixed by 70% ethanol at 4° C. for 30 minutes and then stained with a 50 μg/ml propidium iodine (PI) solution. […]
(§3) In the examination, in addition to the B16 melanoma cells, 4 types of human cancer cell lines (THP-1: promyelocytic leukemia, HeLa: cervical cancer, A549: alveolar cell carcinoma, HaCaT: cutaneous cancer model cells) were examined for the proportion of dead cells induced by stimulation of ascopyrone P. To the cancer cell culture solutions, ascopyrone P was added to 1.4 mM, and the percentages of dead cells after 48 hours were determined.

[5] = tested on: HeLa (human cervical cancer cells); assay: Percentage of dead cells and cell cycle by PI staining/FACS; format: cell-based; conditions: 1.4 mM
Description: as §1
(§4) The cell culture media were stimulated by ascopyrone P solutions (prepared by dissolving ascopyrone P in dimethyl sulfoxide (DMSO)) of various concentrations and cultured for a predetermined time. Thereafter, cells were collected in a floating state by use of trypsin. Then, the cells were fixed by 70% ethanol at 4° C. for 30 minutes and then stained with a 50 μg/ml propidium iodine (PI) solution. After 30 minutes, DNA histograms were prepared by use of an FACS to examine cell death percentages and cell cycles.
as §3
Therefore, when ascopyrone P is given to a living body as an antitumor medicine, it is expected that it specifically exerts a cell killing effect only on tumor cells without affecting normal cells most of which are conceived in the G0/1 period of the cell cycle.

[6] = tested on: A549 (human alveolar cell carcinoma); assay: Percentage of dead cells by PI staining/FACS; DNA fragmentation; format: cell-based
Description: as §1, §2, §3

[7] = tested on: HaCaT (human keratinocyte derived tumor-like cells); assay: Percentage of dead cells by PI staining/FACS; DNA fragmentation; FCS 10% vs FCS 1%; format: cell-based; conditions: 1.4 mM
Description: as §1, §4, §3
It is known that although HaCaT cells have characteristics of tumor cells in the presence of 10% FCS, they have characteristics close to those of normal cells in the presence of low-concentration FCS (1% or lower). By taking advantage of this characteristic, the influence of ascopyrone P on normal cells was examined.

[8] = tested on: B16 melanoma (C57 BL/6 mouse melanoma cells); assay: Percentage of dead cells by PI staining/FACS; format: cell-based; conditions: 1.4 mM, after 48 hours
Description: as §1, §2, §3

[9] = tested on: B16 melanoma cells in C57 BL/6 mice; assay: Subcutaneous B16 melanoma tumor volume and metastasis; format: in vivo, mouse; conditions: 25 mg/kg subcutaneously into tumor spots every other day, 3rd to 13th day
Description: Next, B16 melanoma cells (1×10^5 cells) were subcutaneously disseminated in the backs of C57 BL/6 mice, PBS and ascopyrone P were subcutaneously injected into tumor spots (using a solution of ascopyrone P dissolved in PBS in a dosage of 25 mg/kg) every other day from the 3rd day to the 13th day, and the antitumor effects were evaluated based on the volumes (long diameter×short diameter^2×0.52) of the tumors (FIG. 10). […] In general, it is said in clinical practice that an antitumor medicine with a lower tumor growing rate provides better prognosis.

In the case of `O=C1CO[C@H](CO)[C@@H](O)[C@@H]1O` [1,5-D-anhydrofructose], the “cell adhesion by phorbol ester (remaining)” value [1] is reported as “about 25%” and the “average survival days after the tumor cells were disseminated” value ([2]; 200 mg/kg into the abdominal cavity every day from the 2nd day, PBS controls 14 days) is reported as 19 days.

With `O=C1CC(CO)OC=C1O` (stereo not drawn) [ascopyrone P, 2-hydroxymethyl-5-hydroxy-2,3-dihydro-4H-pyran-4-one] the “number of living cells (control DMSO = 100%)” value [3] was ≤ 50%, the cell death ([4]; THP-1, 0.35 mM, within 48 hours) was “induced cell death” and the “Percentage of Dead Cells (%)” value ([4]; THP-1, 1.4 mM, after 48 hours) was 33.3 ± 0.7%. For the same compound, the “Percentage of Dead Cells (%)” value ([5]; after 48 hours) was 8.3 ± 2.0%, the “G2/M period cell population” value ([5]; FCS 10%, 24 hours) was “significant decrease” and the S-period cell population ([5]; FCS 10%, 24 hours) was “significant increase”. The cell death ([5]; FCS 10%, 48 hours) was “about 10%”, the “Percentage of Dead Cells (%)” value ([6]; A549, 1.4 mM, after 48 hours) was 48.6 ± 3.8% and the “apoptosis-specific DNA fragmentation” value ([6]; A549 cells) was “the same result was also obtained”. For the same compound, the “apoptosis-specific DNA fragmentation” value ([7]; 48 hours, agarose gel electrophoresis) was “apoptosis-specific DNA fragmentation was observed”, the “Percentage of Dead Cells (%)” value ([7]; after 48 hours) was 27.2 ± 3.1% and the cell death ([7]; FCS 1% (normal-cell-like)) was “almost no cell death was observed”. The cell death ([7]; FCS 10% (tumor-like growth), within 48 hours) was “about 30%”, the “Percentage of Dead Cells (%)” value [8] was 31.9 ± 3.6% and the “proportion of mice with 3 times or longer life time expansion than controls (PBS)” value ([2]; 200 mg/kg into the abdominal cavity every day from the 15th day) was 40%. For the same compound, the average survival days ([2]; 200 mg/kg into the abdominal cavity every day from the 15th day, PBS controls 4 days) was 8 days, the “metastasis of tumors at dissection” value [9] was “hardly observed” and the “tumor volume versus PBS” value ([9]; from the 7th day and later) was “significantly smaller tumor volume”. The “tumor volume versus PBS” value ([9]; until the 7th day) was “no difference”.
